Reference: US20050191348A1 (priority 2004, published 2005)

Columns and labels:
[1] = tested on: Bcl-2 family and PKC isoform mRNA; experiment: Gene expression by quantitative real-time RT-PCR in serum-free PC12 cells; assay type: cell-based, rat; settings: 1 μM, 24 h, serum-free PC12
Experimental: (vi) Total RNA extraction. PC12 cells were cultured in DMEM containing 5% FCS and 10% horse serum until confluence. At the day of the experiment, the medium was replaced with fresh medium without serum and rasagiline or propargylamine at various concentrations were administered for 24 h. At the end of incubation, the medium was removed and isolation of total RNA was performed, using Tri Reagent™ Isolation reagent. Total RNA was treated with DNase-RNase free (Roche Diagnostics, Mannheim, Germany) for 30 min at 37° C. and subsequently extracted by a round of phenol:chlorophorm:isoamylalcohol (25:24:1), followed by one of chloroform. After precipitation with NaOAc (0.3 M) and ethyl alcohol, the RNA pellet was washed with 80% ethyl alcohol (12,000×g) for 10 min and resuspended in 50-100 μl of diethylpyrocarbonate (DEPC)-treated water and incubated for 5-10 min at 56° C. to facilitate resuspension.
(vi) Reverse transcription (RT) and quantitative real-time RT-PCR. In order to confirm the results obtained with the customized cDNA expression micro-array, 2 μg of total RNA were denatured and reverse transcribed using random hexanucleotides (0.5 μg/μl). Secondary structures of the template and primer (total volume of 16 μl) were opened by incubation for 5 min at 70° C. and immediately cooled on ice. Reaction mix (9 μl) containing reaction buffer, dNTP (0.5 mm each), RNAasin™ RNAase inhibitor (Promega) (25U) and M-MLV reverse transcriptase (200U) was added and samples were incubated at 39° C. for 1 h. For every RNA preparation a negative control was run in parallel consisting of a direct amplification of the RNA sample, omitting the RT step. The samples were transferred to 92° C. for 10 min, in order to deactivate the enzyme, and then cooled to 4° C.
Quantitative real-time PCR, using LightCycler and FastStart DNA Master SYBR Green I ready-to use PCR mix, was performed according to the manufacture's protocol (Roche Diagnostics, Mannheim, Germany). cDNA (40 ng) was amplified in 20 μl total volume. The sequences of the primers and the size of the products are described in Table 1. The results are analyzed on the provided program of the LightCycler. The relative expression level of a given mRNA was assessed by normalizing to the housekeeping gene 18S-rRNA and compared with control values.
In this experiment, we examined whether Bcl-2 family proteins mediate the pro-survival effect of rasagiline, using serum-starved rat pheochromocytoma PC12 cell line as a model of neuronal apoptosis. PC12 cells were maintained in full-serum (control), or in serum-free (SF) media in the absence or presence of various concentrations of rasagiline (0.001, 0.1, 1 and 10 μM) for 3 h or 24 h, and gene expression was measured by quantitative real-time RT-PC. The real-time RT-PCR consists of RNA samples isolated from said PC-12 cells. Each gene expression was normalized to the housekeeping gene, 18S-rRNA, since this transcript was reported to be less susceptible to the influence by external factors.
The effect of propargylamine on Bad and Bax mRNA levels was examined as described in Example 5 above.

[2] = tested on: caspase-3; experiment: Caspase-3 cleavage in SH-SY5Y cells in serum free medium; assay type: cell-based, human; settings: 3 days serum free, then 48 h with 1, 10 μM
Experimental: FIGS. 3A-3D show the neuroprotective effects of propargylamine against serum deprivation. PC12 cells (3A) and SH-SY5Y neuroblastoma cells (3B) were incubated under serum deprivation and were untreated or treated with propargylamine (0.1, 1, 10 μM) for 24 hours. Cell death was detected by ELISA and the values are expressed as a percentage of the control. The results are the mean±SEM (n=3). *p<0.05 vs. control, untreated cells. (3C) Morphological characteristics visualized by phase-contrast microscope of PC12 cells maintained with full serum medium (a), or serum-free medium in the absence (b) or presence of propargylamine (1 μM) (c) or (10 μM) (d). The morphology was visualized by phase-contrast microscope. The results are representative photographic. Similar results were repeated 3 times. (3D) Effect of propargylamine on caspase-3 cleavage in SH-SY5Y neuroblastoma cells incubated 3 days in serum free medium, followed by 48 h incubation with or without propargylamine (1,10 μM).
(iv) Immunoblot Analyses. […] Protein content was determined using the Bradford method. […] Quantification of results was accomplished by measuring the optical density of the labeled bands from the autoradiograms by scanning laser densitometry using the computerized imaging program Bio-ID (Imager, Bio1D software; Vilber Lourmat, Marne La Vallee, France). […]

Structure (SMILES): C#CCN [propargylamine]
- Bad gene expression [1]: restored both Bax and Bad gene expressions to that of full serum level
- Bax gene expression [1]: restored both Bax and Bad gene expressions to that of full serum level
- activated caspase-3 [2]: decreased activated caspase-3
